# Measurements reported in ChEMBL document CHEMBL2396605 (Bioorg Med Chem Lett, 2013).
# How the values were obtained:
# D-amino-acid oxidase [1] = target: D-amino-acid oxidase (Homo sapiens, UniProt P14920); test: Inhibition of human recombinant DAAO expressed in HEK293 cell lysate assessed as D-Serine conversion to H2O2 after 20 mins by spectrophotometric analysis; type: cell-free
# D-amino-acid oxidase [2] = target: D-amino-acid oxidase (Sus scrofa, UniProt P00371); test: Inhibition of pig DAAO assessed as D-Serine conversion to H2O2 by spectrophotometric analysis
# Sequence of D-amino-acid oxidase (Sus scrofa, UniProt P00371) (P00371 whole entry): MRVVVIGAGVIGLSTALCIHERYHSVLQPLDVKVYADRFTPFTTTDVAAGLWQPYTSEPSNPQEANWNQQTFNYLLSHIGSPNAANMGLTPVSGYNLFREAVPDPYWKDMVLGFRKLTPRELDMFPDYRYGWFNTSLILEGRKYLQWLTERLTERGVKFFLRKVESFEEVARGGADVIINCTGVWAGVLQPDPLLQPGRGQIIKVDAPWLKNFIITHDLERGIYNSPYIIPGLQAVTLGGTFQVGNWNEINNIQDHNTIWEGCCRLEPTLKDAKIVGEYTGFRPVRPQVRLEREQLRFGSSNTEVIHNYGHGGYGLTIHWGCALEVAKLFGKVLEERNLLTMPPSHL
# Sequence of D-amino-acid oxidase (Homo sapiens, UniProt P14920) (P14920 whole entry): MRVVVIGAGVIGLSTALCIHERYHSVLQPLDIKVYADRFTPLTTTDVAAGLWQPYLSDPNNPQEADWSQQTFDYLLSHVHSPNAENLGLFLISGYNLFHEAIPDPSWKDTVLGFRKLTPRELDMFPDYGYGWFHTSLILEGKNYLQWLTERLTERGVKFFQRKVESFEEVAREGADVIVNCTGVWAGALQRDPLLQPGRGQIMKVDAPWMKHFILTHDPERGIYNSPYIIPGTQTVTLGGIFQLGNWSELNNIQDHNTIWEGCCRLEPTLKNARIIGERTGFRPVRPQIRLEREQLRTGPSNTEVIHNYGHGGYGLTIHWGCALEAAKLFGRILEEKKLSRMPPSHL
IC50 (D-amino-acid oxidase [1]) [µM],IC50 (D-amino-acid oxidase [2]) [µM],SMILES
> 100,,COc1coc(CO)cc1=O
3,,O=c1cc(COc2cccnc2)occ1O
0.8,,O=c1cc(COc2ccc(F)cc2)occ1O
0.9,,O=c1cc(COc2ccccc2)occ1O
> 100,,CCOCc1cc(=O)c(O)co1
> 100,,O=c1cc(COC2CCCCO2)occ1O (stereo not drawn)
0.7,,O=c1cc(COc2ccc(Cl)cc2)occ1O
50,,COCc1cc(=O)c(O)co1

# The next lines start with the molecule.
SMILES,IC50 (D-amino-acid oxidase [1]) [µM],IC50 (D-amino-acid oxidase [2]) [µM]
O=c1cc(CSc2ccc(F)cc2)occ1O,0.3,
O=C(O)c1cc(CCc2ccccc2)[nH]n1,,< 1
O=C(O)c1cc[nH]n1,,< 100
O=c1cc(CSc2ccc(Cl)cc2)occ1O,0.2,
O=c1cc(COc2ccc(Cl)c(Cl)c2)occ1O,0.5,
O=c1ccn(CCc2ccccc2)cc1O,> 100,
O=c1cc(CCc2ccccc2)occ1O,0.5,
O=c1cc(CSc2ccc(Cl)c(Cl)c2)occ1O,0.1,
O=c1cc(CSc2ccccc2)occ1O,0.2,
O=c1cc(COCc2ccccc2)occ1O,20,
O=C(O)c1cc(CCc2ccccc2)c[nH]1,,< 1
O=C(O)c1ccc[nH]1,,< 10
O=c1cc(COc2ccc3ccccc3c2)occ1O,0.8,
O=c1cc(COc2cccc3ccccc23)occ1O,0.9,
O=c1cc(CSc2ncccn2)occ1O,4,
